Source: patent US4698356A, “Anti-hypertensive agents” (University of Miami, priority 1979, dated 1987)

Molecular target: T1, human urinary ACE (angiotensin converting enzyme) (Homo sapiens, UniProt P12821)
T1 construct: The enzyme preparation was ACE purified from human urine; from tissue; host or cells: human urine (enzyme purified as described by Ryan, J.W., et al., Tissue and Cell 10, 555 (1978))
Assay: ACE activity assay (inhibition of hydrolysis of [3H]-Benzoyl-GlyHisLeu)
Type: biochemical
Settings: read-out: I50
Experimental: These factors include the source of enzyme, its purity, the substrate used and its concentration, and the composition of the assay buffer.
ACE activity assay. […] To initiate the assay, 40 μl of enzyme and 10 μl of water or inhibitor dissolved in water were preincubated for five minutes at 37° C. […] To terminate the reaction, 1 ml of 0.1M HCl was added, following which 1 ml of ethyl acetate was added. The mixture was agitated on a rotary mixer and centrifuged briefly to separate the phases.
An aliquot, 500 μl, of the ethyl acetate layer was transferred to a liquid scintillation vial containing 10 ml of Riafluor, trademark New England Nuclear Corporation, Boston, Mass. For determination of I50 values, enzyme activity in the presence of inhibitor at a series of different concentrations was compared to activity in the absence of inhibitor.

T1 sequence (P12821 30-1232 limits assumed): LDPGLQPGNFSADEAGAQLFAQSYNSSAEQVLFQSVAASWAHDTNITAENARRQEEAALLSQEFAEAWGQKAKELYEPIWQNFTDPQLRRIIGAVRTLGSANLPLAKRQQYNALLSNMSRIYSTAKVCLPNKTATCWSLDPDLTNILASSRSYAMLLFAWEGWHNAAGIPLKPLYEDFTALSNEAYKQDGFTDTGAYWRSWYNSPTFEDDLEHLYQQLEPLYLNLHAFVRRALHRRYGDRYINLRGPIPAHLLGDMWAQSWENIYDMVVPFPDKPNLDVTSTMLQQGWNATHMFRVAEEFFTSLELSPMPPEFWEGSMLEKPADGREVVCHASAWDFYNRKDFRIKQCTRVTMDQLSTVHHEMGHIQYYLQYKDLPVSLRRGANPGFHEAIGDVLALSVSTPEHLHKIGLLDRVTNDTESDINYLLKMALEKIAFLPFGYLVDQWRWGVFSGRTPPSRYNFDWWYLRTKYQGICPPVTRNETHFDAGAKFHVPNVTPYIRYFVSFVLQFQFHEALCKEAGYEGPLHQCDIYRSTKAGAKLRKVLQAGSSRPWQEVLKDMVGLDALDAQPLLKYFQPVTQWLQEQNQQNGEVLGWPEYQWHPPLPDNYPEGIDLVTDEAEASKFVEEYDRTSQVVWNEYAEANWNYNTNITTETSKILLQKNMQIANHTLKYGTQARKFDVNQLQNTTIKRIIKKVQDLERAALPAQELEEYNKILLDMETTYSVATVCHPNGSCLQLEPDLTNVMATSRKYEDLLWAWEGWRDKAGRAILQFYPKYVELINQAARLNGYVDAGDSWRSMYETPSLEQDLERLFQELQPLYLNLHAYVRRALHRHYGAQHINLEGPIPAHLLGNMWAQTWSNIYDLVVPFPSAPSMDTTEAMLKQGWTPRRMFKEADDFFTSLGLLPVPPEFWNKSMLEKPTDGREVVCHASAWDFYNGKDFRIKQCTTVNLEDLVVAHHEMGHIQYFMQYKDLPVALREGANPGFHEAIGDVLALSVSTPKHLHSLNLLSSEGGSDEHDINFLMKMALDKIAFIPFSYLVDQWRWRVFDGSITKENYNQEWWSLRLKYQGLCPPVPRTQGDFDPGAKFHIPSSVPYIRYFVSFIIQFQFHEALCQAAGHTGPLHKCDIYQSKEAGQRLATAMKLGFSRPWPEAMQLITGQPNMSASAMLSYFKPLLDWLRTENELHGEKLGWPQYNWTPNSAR

IC50: 8.8 nM
Compound: C[C@H](CSC(=O)[C@@H](N)Cc1ccccc1)C(=O)N1CCC[C@H]1C(=O)O [Example 14, N^α -(3-L-phenylalanylthio-2-D-methylpropanoyl)-L-proline]
